Tests used:
Assay in all cases: Test D controlled growth environment herbicide test, pre- and postemergence
Assay type in all cases: in vivo
[1] = system: Russian thistle (Salsola kali)
Procedure, shortened: (§1)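 Rating is visual, 0–100 scale (100 = complete control), made against untreated plants 14–21 d after treatment in controlled growth conditions. Postemergence sprays went onto 1- to 4-leaf plants in peat medium; preemergence sprays onto silt loam after sowing; formulation included a surfactant.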

[2] = system: barley, spring (spring barley, Hordeum vulgare)
Procedure, shortened: as §1

[3] = system: barley, winter (winter barley, Hordeum vulgare)
Procedure, shortened: as §1

[4] = system: blackgrass (Alopecurus myosuroides)
Procedure, shortened: as §1

[5] = system: bluegrass (annual bluegrass, Poa annua)
Procedure, shortened: as §1

[6] = system: field poppy (Papaver rhoeas)
Procedure, shortened: as §1

kochia (Kochia scoparia) = system: kochia (Kochia scoparia)
Procedure, shortened: as §1

[7] = system: mustard, wild (wild mustard, Sinapis arvensis)
Procedure, shortened: as §1

[8] = system: oat, wild (wild oat, Avena fatua)
Procedure, shortened: as §1

[9] = system: pigweed (Amaranthus retroflexus)
Procedure, shortened: as §1

[10] = system: radish, wild (wild radish, Raphanus raphanistrum)
Procedure, shortened: as §1

[11] = system: speedwell (bird's-eye speedwell, Veronica persica)
Procedure, shortened: as §1

[12] = system: wheat, spring (spring wheat, Triticum aestivum)
Procedure, shortened: as §1

[13] = Postemergence, 31 g ai/ha, scale 0 to 100 (0 no effect, 100 complete control)
[14] = Postemergence, 125 g ai/ha, visual rating on scale 0 (no effect) to 100 (complete control), 14 to 21 d
[15] = Postemergence, 250 g ai/ha, scale 0 to 100 (0 no effect, 100 complete control)
[16] = Preemergence, 62 g ai/ha, scale 0 to 100 (0 no effect, 100 complete control)
[17] = Preemergence, 125 g ai/ha, scale 0 to 100 (0 no effect, 100 complete control)
[18] = Preemergence, 250 g ai/ha, scale 0 to 100, 0 no effect, 100 complete control
[19] = postemergence, 62 g ai/ha, scale 0 to 100, 0 no effect, 100 complete control

Cc1ccc2sc(C)c(-c3c(OC(=O)OC(C)C)c(C)nn(C)c3=O)c2c1 [Compound 66]
30: Plant response rating, Bluegrass [5, 14] | Plant response rating, Bluegrass [5, 18] | Plant response rating (scale of 0 to 100), Pigweed ([9]; Preemergence, 31 g ai/ha) | Plant response rating, Radish, Wild [10, 14] | Plant response rating (scale of 0 to 100), Radish, Wild ([10]; Preemergence, 31 g ai/ha)
90: Plant response rating, Russian Thistle [1, 18] | Plant response rating, Oat, Wild [8, 18]
10: Plant response rating, Barley, Spring [2, 18] | Plant response rating, Barley, Winter [3, 18] | Plant response rating (scale of 0 to 100), Bluegrass ([5]; Preemergence, 31 g ai/ha) | Mustard, Wild plant response rating [7, 13]
25: Plant response rating (scale of 0 to 100), Blackgrass ([4]; Preemergence, 31 g ai/ha) | Plant response rating, Bluegrass [5, 17] | Plant response rating, Bluegrass [5, 19] | Plant response rating, Radish, Wild [10, 19]
75: Russian Thistle plant response rating [1, 13] | Plant response rating, Russian Thistle [1, 14] | Plant response rating, Blackgrass [4, 14] | Plant response rating, Blackgrass [4, 15] | Plant response rating, Blackgrass [4, 17] | Plant response rating, Kochia (kochia (Kochia scoparia); [17]) | Plant response rating (scale of 0 to 100), Oat, Wild ([8]; Preemergence, 31 g ai/ha) | Plant response rating, Radish, Wild [10, 17] | Plant response rating, Speedwell [11, 15] | Plant response rating (scale of 0 to 100), Speedwell ([11]; Preemergence, 31 g ai/ha)
20: Plant response rating, Russian Thistle [1, 16] | Plant response rating, Wheat, Spring [12, 18]
60: Plant response rating, Russian Thistle [1, 17]
45: Plant response rating, Radish, Wild [10, 15]
35: Plant response rating, Bluegrass [5, 15]
80: Plant response rating, Russian Thistle [1, 15] | Plant response rating, Russian Thistle [1, 19] | Plant response rating, Blackgrass [4, 18]
85: Plant response rating, Field Poppy [6, 19] | Kochia plant response rating (kochia (Kochia scoparia); [13]) | Plant response rating, Kochia (kochia (Kochia scoparia); [18]) | Oat, Wild plant response rating [8, 13] | Plant response rating, Oat, Wild [8, 16] | Plant response rating, Oat, Wild [8, 17]
65: Blackgrass plant response rating [4, 13]
95: Plant response rating, Field Poppy [6, 14] | Plant response rating, Field Poppy [6, 15] | Plant response rating, Kochia (kochia (Kochia scoparia); [19]) | Plant response rating, Oat, Wild [8, 19] | Pigweed plant response rating [9, 13]
100: Plant response rating (scale of 0 to 100), Field Poppy ([6]; Preemergence, 31 g ai/ha) | Plant response rating, Field Poppy [6, 16] | Plant response rating, Field Poppy [6, 17] | Plant response rating, Field Poppy [6, 18] | Plant response rating, Kochia (kochia (Kochia scoparia); [14]) | Plant response rating, Kochia (kochia (Kochia scoparia); [15]) | Plant response rating, Oat, Wild [8, 14] | Plant response rating, Oat, Wild [8, 15] | Plant response rating, Pigweed [9, 14] | Plant response rating, Pigweed [9, 15] | Plant response rating, Pigweed [9, 16] | Plant response rating, Pigweed [9, 17] | Plant response rating, Pigweed [9, 18] | Plant response rating, Pigweed [9, 19] | Plant response rating, Speedwell [11, 16] | Plant response rating, Speedwell [11, 17] | Plant response rating, Speedwell [11, 18]
70: Plant response rating, Blackgrass [4, 16] | Plant response rating, Blackgrass [4, 19] | Field Poppy plant response rating [6, 13] | Plant response rating, Mustard, Wild [7, 15] | Plant response rating, Radish, Wild [10, 16] | Plant response rating, Radish, Wild [10, 18] | Plant response rating, Speedwell [11, 14] | Plant response rating, Speedwell [11, 19]
55: Plant response rating, Mustard, Wild [7, 14] | Speedwell plant response rating [11, 13]
0: Plant response rating (scale of 0 to 100), Russian Thistle ([1]; Preemergence, 31 g ai/ha) | Barley, Spring plant response rating [2, 13] | Plant response rating (scale of 0 to 100), Barley, Spring ([2]; Preemergence, 31 g ai/ha) | Plant response rating, Barley, Spring [2, 16] | Plant response rating, Barley, Spring [2, 19] | Barley, Winter plant response rating [3, 13] | Plant response rating, Barley, Winter [3, 14] | Plant response rating (scale of 0 to 100), Barley, Winter ([3]; Preemergence, 31 g ai/ha) | Plant response rating, Barley, Winter [3, 16] | Plant response rating, Barley, Winter [3, 17] | Plant response rating, Barley, Winter [3, 19] | Bluegrass plant response rating [5, 13] | Plant response rating (scale of 0 to 100), Kochia (kochia (Kochia scoparia); Preemergence, 31 g ai/ha) | Plant response rating (scale of 0 to 100), Mustard, Wild ([7]; Preemergence, 31 g ai/ha) | Plant response rating, Mustard, Wild [7, 16] | Plant response rating, Mustard, Wild [7, 17] | Plant response rating, Mustard, Wild [7, 18] | Wheat, Spring plant response rating [12, 13] | Plant response rating, Wheat, Spring [12, 14] | Plant response rating (scale of 0 to 100), Wheat, Spring ([12]; Preemergence, 31 g ai/ha) | Plant response rating, Wheat, Spring [12, 16] | Plant response rating, Wheat, Spring [12, 19]
40: Plant response rating, Mustard, Wild [7, 19]
5: Plant response rating, Barley, Spring [2, 14] | Plant response rating, Barley, Winter [3, 15] | Radish, Wild plant response rating [10, 13] | Plant response rating, Wheat, Spring [12, 15] | Plant response rating, Wheat, Spring [12, 17]
15: Plant response rating, Barley, Spring [2, 15] | Plant response rating, Bluegrass [5, 16] | Plant response rating, Kochia (kochia (Kochia scoparia); [16])

— patent publication US10597388B2, “Pyridazinone herbicides” (FMC CORPORATION, priority 2014, dated 2020)
